Source: US12472207B2, “Anti-inflammatory compositions and methods” (RR Medsciences Pty Ltd., priority 2019, dated 2025)

Columns and labels:
[1] = NBT superoxide scavenging (SOD-like activity) assay; format: biochemical; conditions: for Absorbance 560 nm Ave: SOD primary data
Source text: The purpose of these experiments was to measure the Superoxide Dismutase-like (SOD-like) activity of the copper ion complex (RM191A) depicted in the Examples below as “Cu”. The inventors employed a modified version of the method described by Beauchamp and Fridovich (see, Beauchamp et al. 1971). The reason for this modification was to create a reaction mixture that successfully generates known quantities of the O2^− free radical but does so at a pH at which the copper ion complex is stable—specifically in the range pH 6.5-7.8.
Because of the instability of its substrate, all available chemical assays of SOD and SOD-like activity are necessarily indirect and depend upon its ability to scavenge O2^− from reaction mixtures and thus to inhibit reactions caused by O2^−.
NitroBlue Tetrazolium (NBT) was selected as an indicator to measure and compare the superoxide scavenging activities of both bovine SOD and the copper ion complex (“RM191A,” the preparation of which is described in detail in International PCT Patent Publication No. WO/AU2016/201524), This assay utilizes photochemical events to generate O2^− in a sodium tetraborate buffered solution of acetone and isopropanol which is then irradiated by high energy UV light at 254 nm (Mercury Vapour Lamp) to create O2^− in the solution.
SOD and SOD-like substances inhibit the formation of the blue formazan by neutralising the superoxide free radicals as they are forming. Blue formazan has a characteristic UV absorbance at 560 nm. The quantitation of the UV absorbance of the reaction solution at 560 nm is a direct measure the SOD and SOD-like activity of a substance.
UV absorbances of the reaction solutions were measured at 560 nm following irradiation with UV light to determine the superoxide free radical scavenging activity in situ of both bovine SOD and the copper ion complex (RM191A).
Each reaction solution consists of 0.5 ml of 200 μmol/L NBT in borate buffer (pH=7.1) and 0.5 ml of a 200 μmol/L solution of the test compound in 5.0 mL of 5 mol/L isopropanol.
To each reaction vessel 15 mg acetone (20 μL) as added to begin the reaction. Each vessel was then irradiated with UV light at 254 nm (mercury vapour lamp) for 1 minute.
The reaction solution was then transferred into UV Vis cells and the absorbance at 560 nm was measured.
A number of test solution concentrations were assayed by adding, 1.0, 1.25, 1.5, 1.75, 2.0 mL of a 200 μmol/L solution of the test compound and bringing the total volume to 5.0 mL with 5 mol/L isopropanol.
The method uses a Cu control to remove the minor background copper absorbance.

human skin explants [2] = assay: UV-induced 8-nitroguanine (8NGO) in human skin explants (immunohistochemistry); format: cell-based; conditions: either protocol
Source text: FIG. 6. (A) Representative images of immunohistochemical staining of 8NGO in human explants from isotype control and sham exposed explants. (B) Representative images of immunohistochemical staining of 8NGO in human skin explants from UV-exposed explants. (C-D) Analysis of 8NGO in epidermis (C) and dermis (D) of skin explants. Bars indicate significant differences **** p<0.001; NS=not significant between data sets (n=3 explants per data point).
(§1) Exposure of skin to UV radiation induces oxidative stress via a dramatic increase in ROS (see, Dunaway et al., 2018). In this section of the research work we measured oxidative DNA damage caused by UV-induced cyclobutene pyrimidine dimers (CPD), oxidative DNA damage resulting from UV-induced 8-oxo-guanine (8-oxoG), and nitrosative DNA damage caused by 8-nitroguanine (8NG) (Mason et al., 2013). Typically, if these DNA lesions are not adequately repaired, they lead to mutations which may then lead to the development of skin tumours (Mason et al., 2013). Our primary objective here was to determine if RM191A, when applied topically to ex vivo human skin, reduced UV-induced DNA damage.
(§2) The same treatment protocols were also followed for a placebo gel which contained no RM191A. […]

human skin explants [3] = assay: UV-induced CPD in human skin explants (immunohistochemistry); format: cell-based; conditions: epidermis; treatment of UV-exposed explants (post-treatment, RM191A Gel 2); vs UV-exposed controls
Source text: FIG. 4: RM191A protects against UV-induced oxidative stress. (A) Representative images of immunohistochemical staining of CPDs in human explants from isotype control and sham exposed explants. There was little staining in the isotype control. […] (B) Representative images of immunohistochemical staining of CPDs in human skin explants from UV-exposed explants. (C) Analysis of CPD in epidermis of skin explants. Bars indicate significant differences **** p<0.001; NS=not significant between data sets (n=3 explants per data point).
as §1, §2

human skin explants [4] = assay: UV-induced 8-oxoG in human skin explants (immunohistochemistry); format: cell-based; conditions: epidermis; treatment of UV-exposed explants (post-treatment, RM191A Gel 2); vs UV-exposed controls
Source text: FIG. 5. (A) Representative images of immunohistochemical staining of 8-oxoG in human explants from isotype control and sham exposed explants. (B) Representative images of immunohistochemical staining of 8-oxoG in human skin explants from UV-exposed explants. (C-D) Analysis of 8-oxoG in (C) epidermis and (D) dermis of skin explants. Bars indicate significant differences **** p<0.001; NS=not significant between data sets (n=3 explants per data point).
as §1, §2

| Compound | Absorbance (Table 5) ([1]; 1.6 μM) | Absorbance (Table 5) ([1]; 20 μM) | Absorbance (Table 5) ([1]; 40 μM) | Absorbance (Table 5) ([1]; 80 μM) | Absorbance 560 nm Ave ([1]; Molarity 0.0000016) | Absorbance 560 nm Ave ([1]; Molarity 0.00002) | Absorbance 560 nm Ave ([1]; Molarity 0.00004) | Absorbance 560 nm Ave ([1]; Molarity 0.00008) | Absorbance 560 nm Ave ([1]; Molarity 0.0001) | Absorbance 560 nm Ave ([1]; Molarity 0.00012) | Absorbance 560 nm Ave ([1]; Molarity 0.00014) | 8NGO vs UV-exposed controls (human skin explants [2]) | decrease in CPD (human skin explants [3]) [%] | decrease in nuclear 8-oxoG (human skin explants [4]) [%] |
| --- | --- | --- | --- | --- | --- | --- | --- | --- | --- | --- | --- | --- | --- | --- |
| SOD: bovine superoxide dismutase used as comparator | 0.2988 | 0.2879 | 0.2348 | 0.332 | 0.2988 | 0.2879 | 0.2348 | 0.332 | 0.3163 | 0.3215 | 0.3555 |  |  |  |
| C=C1/C(=C\C=C2/CCC[C@]3(C)[C@@H]([C@H](C)CCCC(C)(C)O)CC[C@@H]23)C[C@@H](O)C[C@@H]1O [1,25D, 1,25-dihydroxy vitamin D3] |  |  |  |  |  |  |  |  |  |  |  | significantly decreased | 30 | 27 |
